According to article PMC10251479, “PROTAC-Induced Glycogen Synthase Kinase 3β Degradation as a Potential Therapeutic Strategy for Alzheimer’s Disease” (ACS Chemical Neuroscience, 2023):
Several values for one entry are separate records, joined by “and”; a condition that tells them apart may be missing. Equal values may be shown once.

Experiments:
SH-SY5Y cells [1] = test: Cytotoxicity in SH-SY5Y cells (MTT); format: cell-based, human; settings: MTT, 24 h treatment, 1.25–40 μM
Method: Human neuronal SH-SY5Y cells (Sigma-Aldrich, St. Louis, MO, USA) were routinely grown in Dulbecco’s modified Eagle’s Medium supplemented with 10% fetal bovine serum, 2 mM l-glutamine, 50 U/mL penicillin, and 50 μg/mL streptomycin at 37 °C in a humidified incubator with […]
Determination of cytotoxicity
(§1) SH-SY5Y cells were seeded in a 96-well plate at 2 × 10^4 cells/well, incubated for 24 h and then […]
for 24 h at 37°C in 5% CO2. The cell viability, in terms of mitochondrial metabolic function, was evaluated by the reduction of 3-(4,5-dimethyl-2-thiazolyl)-2,5-diphenyl-2H-tetrazolium bromide […]
(MTT) to its insoluble formazan. Briefly, the treatment was replaced with MTT in HBSS [0.5 mg/mL] for 2 h at 37°C in 5% CO2. After washing with HBSS, formazan crystals were dissolved in isopropanol. The amount of formazan was measured (570 nm, reference filter 690 nm) using a multilabel plate reader (VICTOR™ X3, PerkinElmer, Waltham, MA, USA). Data are expressed as mean of three independent experiments. […]

PAMPA-BBB permeation = format: in vitro ADME; settings: for Papp at 2.75 h: PAMPA, pH 7.4, PBS:EtOH (70:30), 2 h 45 min at 25 °C, porcine brain lipid, mean ± SD of two independent experiments, read-out: Pe (experimental data)
Method: 11. PAMPA BBB permeation studies.
Prediction of the brain penetration was evaluated using a parallel artificial membrane permeability assay (PAMPA).[12] Ten commercial drugs, PBS at pH 7.4, EtOH, and dodecane were purchased from Sigma- Aldrich, Acros organics, Merck, and Fluka. The porcine polar brain lipid (PBL) was from Avanti Polar Lipids. The donor plate was a 96-well filtrate plate (Multiscreen® IP Sterile Plate PDVF […]
both from Millipore. Filter PDVF membrane units (diameter 30 mm, pore size 0.45 µm) from Symta were used to filter the samples. A 96-well plate UV reader (Biteck Instruments, Synergy H4 Hibrid Reader) was used for the UV measurements.
12 mg of promazine) were dissolved in 1 mL of EtOH. 100 µL of this compound stock solution were taken and 1400 µL of EtOH and 3500 µL of PBS were added to reach 30% of EtOH concentration in the experiment. These solutions were filtered. The acceptor 96-well microplate was filled with 180 µL of PBS/EtOH (70/30). The donor 96-well plate was coated with 4 µL of porcine brain lipid in dodecane (20 mg mL-1) and after 5 min, 180 µL of each compound solution was added. 1 mg of […]
of EtOH and 1.4 mL of PBS, filtered and then added to the donor 96-well plate. Then the donor plate was carefully put on the acceptor plate to form a “sandwich”, which was left undisturbed for 2 h and 45 min at 25 °C. During this time the compounds diffused from the donor plate through the brain lipid membrane into the acceptor plate. After incubation, the donor plate was removed. UV plate reader determined the concentration of compounds and commercial drugs in the acceptor and the donor plates. Every sample was analyzed at three to five wavelengths (between 200 and 500 nm), in 3 wells and in two independent runs. Results are given as the mean and the average of the two runs is reported. Quality control compounds (previously mentioned) of known BBB permeability were included in each experiment to validate the analysis set.

GSK-3β protein [2] = biological target: T1, GSK-3β protein (Homo sapiens, UniProt P49841); test: GSK-3β degradation by Western blotting in SH-SY5Y cells; format: cell-based; set-up: endogenous in cells; host or cells: SH-SY5Y; settings: 10 μM, 48 h, Western blotting
T1 sequence (P49841 whole entry): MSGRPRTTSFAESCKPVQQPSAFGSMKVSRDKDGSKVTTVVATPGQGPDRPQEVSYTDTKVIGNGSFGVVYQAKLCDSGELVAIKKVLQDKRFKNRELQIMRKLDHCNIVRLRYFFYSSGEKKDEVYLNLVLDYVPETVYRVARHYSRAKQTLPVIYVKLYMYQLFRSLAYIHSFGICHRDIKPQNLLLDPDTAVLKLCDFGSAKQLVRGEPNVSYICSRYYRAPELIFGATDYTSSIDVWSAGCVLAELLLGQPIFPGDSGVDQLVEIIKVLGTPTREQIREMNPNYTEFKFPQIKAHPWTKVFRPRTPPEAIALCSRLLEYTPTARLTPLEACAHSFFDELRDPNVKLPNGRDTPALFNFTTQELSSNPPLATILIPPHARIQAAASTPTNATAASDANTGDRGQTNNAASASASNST
Method: Determination of GSK-3β degradation by Western Blotting
At the end of incubation, cells were trypsinized and the cellular pellet was resuspended in complete lysis buffer containing leupeptin (2 µg/mL, Sigma-Aldrich), phenylmethylsulfonyl fluoride (PMSF, 100 µg/mL, Sigma-Aldrich) and a cocktail of protease/phosphatase inhibitors (100×). The protein concentration was determined using the Bradford method (Bio-Rad Laboratories Srl, Hercules, CA, USA). The protein lysates (50 µg per […]
polyacrylamide gels, Bio-Rad Laboratories SrL) and electroblotted onto 0.45 µm nitrocellulose membranes. Membranes were incubated overnight at 4 °C with primary antibody recognizing GSK-3β (1:1000, Cell Signaling Technologies Inc, Danvers, MA, USA). Membranes were then washed with TRIS-buffered saline-T (TBS + 0.05% Tween20), and then incubated with horseradish peroxidase (POD) linked anti-rabbit secondary antibody (1:2000, GE Healthcare, Chicago, IL, USA).
Immunoreactive bands were visualized by enhanced chemiluminescence (ECL, Bio-Rad Laboratories Srl). The same membranes were stripped and reprobed with anti β-actin (1:1000, Sigma-Aldrich). Data were normalized on the β-actin bands and analyzed by densitometry, using the Quantity One software (Bio-Rad Laboratories Srl).[9] […]

GSK-3β protein [3] = biological target: T1, GSK-3β protein; test: GSK-3β inhibition in vitro assay (Kinase-Glo luminescent); format: biochemical; set-up: purchased Millipore (Millipore Iberica S.A.U.); settings: ATP 1 μM, GSM substrate 25 μM, 30 min at 37 °C; mean of at least two determinations in duplicate; read-out: IC50 ± SEM, GSK-3β activity
Text: N-(2-(2-(2-((2-(2,6-dioxopiperidin-3-yl)-1,3-dioxoisoindolin-4-yl)amino)ethoxy)ethoxy)ethyl)- 4-((2-(naphthalen-1-yl)-3,5-dioxo-1,2,4-thiadiazolidin-4-yl)methyl)benzamide (4). Synthesized […]
GSK-3β inhibition in vitro assay. Human recombinant GSK-3β, prephosphorylated polypeptide substrate and white 96-well plates were purchased from Millipore (Millipore Iberica S.A.U.). Kinase-Glo Luminescent Kinase Assay was obtained from Promega (Promega Biotech Iberica, SL).
Adenosinetriphosphate (ATP) and all other reagents were from Sigma-Aldrich. Assay buffer contained 50 mM 4-(2-hydroxyethyl)-1- piperazineethanesulfonic acid (HEPES) (pH 7.5), 1 mM ethylenediaminetetraacetic acid (EDTA), 1 mM ethylene glycol tetraacetic acid (EGTA), and 15 mM magnesium acetate. The in solution experiments for GSK-3β inhibition analysis were performed by following the method developed by Baki et al.[1] In a typical assay, 10 μL of test compound (dissolved […]
in DMSO at 1 mM concentration and diluted in advance in assay buffer to the desired concentration) and 10 μL (20 ng) of enzyme were added to each well in presence of 20 μL of assay buffer containing […]
After a 30 min incubation time at 37 °C, the enzymatic reaction was stopped by adding 40 μL of Kinase-Glo reagent. Glow-type luminescence was recorded after 10 min using a Victorx3 (PerkinElmer Waltham, MA, USA) plate […]
inhibitory activities were calculated based on maximal kinase (average positive) and luciferase activities (average negative) measured in the absence of inhibitor and in the presence of reference […]
μM), respectively. The linear regression parameters were determined and the IC 50 extrapolated by GraphPad software (version 5.0; GraphPad Software, La Jolla, CA, USA).

SH-SY5Y cells [4] = test: Neuroprotective effects against CuSO4 in SH-SY5Y cells (MTT); format: cell-based, human; settings: 1 μM, 24 h, CuSO4 150 μM, MTT
Method: as §1
presence of CuSO4 (150 µM) at 37 °C in 5 % CO2. Cells were also treated with compound 1 (1 µM) for 24 h in the presence of lactacystin (5 µM). At the end of the treatment, the cell viability, in terms of mitochondrial metabolic function, was evaluated by the reduction of 3-(4,5-dimethyl-2-thiazolyl)- 2,5-diphenyl-2H-tetrazolium bromide (MTT) to its insoluble formazan. Briefly, the treatment was replaced with MTT in HBSS [0.5 mg/mL] for 2 h at 37°C in 5% CO2. After washing with HBSS, formazan crystals were dissolved in isopropanol. The amount of formazan was measured (570 nm, reference filter 690 nm) using a multilabel plate reader (VICTOR™ X3, PerkinElmer, Waltham, MA, USA).[10] Data are reported as mean ± SEM of three independent experiments. The neurotoxicity was expressed as a percentage of control cells and calculated by the formula: 100 – ((absorbance of treated

[5] = commercial drugs of the validation study; ref [12]; cited from earlier work
[6] = classified from experimental Pe

Structure (SMILES) | Papp at 2.75 h (PAMPA-BBB permeation) | concentration at which cytotoxicity was shown (SH-SY5Y cells [1]) | total GSK-3β protein level (GSK-3β protein [2]) | also measured
O=C(Cn1cc(C2=C(c3ccc(Cl)cc3Cl)C(=O)NC2=O)c2ccccc21)NCCOCCOCCNc1cccc2c1C(=O)N(C1CCC(=O)NC1=O)C2=O (stereo not drawn) [Compound 3] | 20.7 ± 3.93 ×10⁻⁶ cm/s | higher than 20 μM | significantly decreased the total level of GSK-3β protein | BBB permeability classification (PAMPA-BBB permeation; [6]): predicted to cross the BBB; Prediction (penetration in the CNS) (PAMPA-BBB permeation; [6]): CNS + (CNS + (green) for P e > 15.78 × 10−6 cm s−1); IC50 (GSK-3β protein [3]): 457 ± 99 nM
O=c1sn(-c2cccc3ccccc23)c(=O)n1Cc1ccccc1 [tideglusib, reference compound] | – | – | – | neurotoxicity induced by CuSO4 (SH-SY5Y cells [4]): significantly counteracted the neurotoxicity induced by CuSO4
O=C1CCC(N2C(=O)c3cccc(NCCCOCCCCOCCCNC(=O)c4ccc(Cn5c(=O)sn(-c6cccc7ccccc67)c5=O)cc4)c3C2=O)C(=O)N1 (stereo not drawn) [Compound 2] | – | ≥ 20 µM | did not induce GSK-3β degradation | IC50 (GSK-3β protein [3]): 79.3 nM and 79 nM
Cn1c(=O)c2c(ncn2C)n(C)c1=O [Caffeine, reference compound] | 7.29 ± 0.57 ×10⁻⁶ cm/s | – | – | –
Cn1cc(C2=C(c3ccc(Cl)cc3Cl)C(=O)NC2=O)c2ccccc21 [SB-216763, reference compound] | – | higher than 20 μM | did not modify the basal level of GSK-3β protein | neurotoxicity induced by CuSO4 (SH-SY5Y cells [4]): significantly counteracted the neurotoxicity induced by CuSO4
O=C1CCC(N2C(=O)c3cccc(NCCOCCOCCNC(=O)c4ccc(Cn5c(=O)sn(-c6cccc7ccccc67)c5=O)cc4)c3C2=O)C(=O)N1 (stereo not drawn) [Compound 4, N-(2-(2-(2-((2-(2,6-dioxopiperidin-3-yl)-1,3-dioxoisoindolin-4-yl)amino)ethoxy)ethoxy)ethyl)-4-((2-(naphthalen-1-yl)-3,5-dioxo-1,2,4-thiadiazolidin-4-yl)methyl)benzamide] | – | higher than 20 μM | did not induce GSK-3β degradation | IC50 (GSK-3β protein [3]): 178 nM

Further lines, with some results ahead:

Papp at 2.75 h (PAMPA-BBB permeation) | Structure (SMILES) | concentration at which cytotoxicity was shown (SH-SY5Y cells [1]) | total GSK-3β protein level (GSK-3β protein [2]) | also measured
10.3 ± 0.95 ×10⁻⁶ cm/s | CCn1cc(C(=O)O)c(=O)c2cc(F)c(N3CCNCC3)nc21 [Enoxacin, reference compound] | – | – | –
5.37 ± 0.17 ×10⁻⁶ cm/s | CCn1cc(C(=O)O)c(=O)c2cc(F)c(N3CCNCC3)cc21 [Norfloxacin, reference compound] | – | – | –
24.2 ± 0.89 ×10⁻⁶ cm/s | CN(C)CCCN1c2ccccc2Sc2ccccc21 [Promazine, reference compound] | – | – | Pe (literature data) [5]: 8.8 10-6 cm s-1
12.8 ± 0.63 ×10⁻⁶ cm/s | CN1C(C(=O)Nc2ccccn2)=C(O)c2ccccc2S1(=O)=O [Piroxicam, reference compound] | – | – | Pe (literature data) [5]: 2.5 10-6 cm s-1
36.5 ± 5.35 ×10⁻⁶ cm/s | CNCCCN1c2ccccc2CCc2ccccc21 [Desipramine, reference compound] | – | – | –
